Laboratory results: patent US10294202B2, “Pyrrolidinones as herbicides” (FMC Corporation, priority 2013, dated 2019)

Legend:
[1] = system: barnyardgrass; assay: Test A pre-/postemergence herbicide test; format: in vivo, Echinochloa crus-galli
In short: (§1)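 Approximately 10 days after treatment in the greenhouse, plants were compared with untreated controls and given a 0–100 visual injury rating. Applications: preemergence directed soil spray; postemergence on 2–10 cm plants at the one- to two-leaf stage.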

[2] = system: crabgrass, large; assay: Test A pre-/postemergence herbicide test; format: in vivo, Digitaria sanguinalis
In short: as §1

[3] = system: giant foxtail; assay: Test A pre-/postemergence herbicide test; format: in vivo, Setaria faberii
In short: as §1

[4] = system: morningglory; assay: Test A pre-/postemergence herbicide test; format: in vivo, Ipomoea spp.
In short: as §1

[5] = system: pigweed; assay: Test A pre-/postemergence herbicide test; format: in vivo, Amaranthus retroflexus
In short: as §1

[6] = system: velvetleaf; assay: Test A pre-/postemergence herbicide test; format: in vivo, Abutilon theophrasti
In short: as §1

[7] = system: wheat; assay: Test A pre-/postemergence herbicide test; format: in vivo, Triticum aestivum
In short: as §1

[8] = system: corn; assay: Test A pre-/postemergence herbicide test; format: in vivo, Zea mays
In short: as §1

[9] = system: rice; assay: Test B flooded paddy test; format: in vivo, Oryza sativa; details: Flood, scale of 0 to 100 where 0 is no effect and 100 is complete control
In short: (§2)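 2-leaf plants; flood 3 cm over soil; compound into paddy water; depth held. Greenhouse 13–15 d. Visual rating vs controls, 0 (no effect) to 100 (complete control); dash = not tested.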

[10] = system: sedge, umbrella; assay: Test B flooded paddy test; format: in vivo, Cyperus difformis; details: Flood, scale of 0 to 100 where 0 is no effect and 100 is complete control
In short: as §2

[11] = system: ducksalad; assay: Test B flooded paddy test; format: in vivo, Heteranthera limosa; details: Flood, scale of 0 to 100 where 0 is no effect and 100 is complete control
In short: as §2

[12] = system: barnyardgrass; assay: Test B flooded paddy test; format: in vivo, Echinochloa crus-galli; details: Flood, scale of 0 to 100 where 0 is no effect and 100 is complete control
In short: as §2

[13] = Postemergence, 125 g ai/ha, 0 to 100 scale, 0 no effect, 100 complete control
[14] = Postemergence, 500 g ai/ha, 0 to 100 scale (0 no effect, 100 complete control)
[15] = Preemergence, 125 g ai/ha, visual rating on 0 to 100 scale (0 no effect, 100 complete control)
[16] = preemergence, 500 g ai/ha, 0 to 100 scale (0 no effect, 100 complete control)
[17] = preemergence, 500 g ai/ha, 0 to 100 scale
[18] = Postemergence, 1000 g ai/ha, 0 to 100 scale (0 no effect, 100 complete control)
[19] = Preemergence, 1000 g ai/ha, visual rating on 0 to 100 scale (0 no effect, 100 complete control), approx. 10 days

## O=C1NCC(c2ccc3c(c2)OC(F)(F)O3)C1C(=O)Nc1ccccc1C(F)(F)F (racemic) [Compound 75]
[1]; [13]
  Plant response rating, Barnyardgrass: 40
[1]; [14]
  Plant response rating, Barnyardgrass: 70
[1]; [15]
  Barnyardgrass plant response rating: 50
[1]; [16]
  Plant response rating, Barnyardgrass: 70
[2]; [13]
  Plant response rating, Crabgrass, Large: 60
[2]; [14]
  Plant response rating, Crabgrass, Large: 80
[2]; [15]
  Crabgrass, Large plant response rating: 90
[2]; [17]
  Plant response rating, Crabgrass, Large: 90
[3]; [13]
  Plant response rating, Foxtail, Giant: 70
[3]; [14]
  Plant response rating, Foxtail, Giant: 80
[3]; [15]
  Foxtail, Giant plant response rating: 80
[3]; [17]
  Plant response rating, Foxtail, Giant: 90
[4]; [13]
  Plant response rating, Morningglory: 0
[4]; [14]
  Plant response rating, Morningglory: 0
[4]; [15]
  Morningglory plant response rating: 0
[4]; [17]
  Plant response rating, Morningglory: 0
[5]; [13]
  Plant response rating, Pigweed: 0
[5]; [14]
  Plant response rating, Pigweed: 0
[5]; [15]
  Pigweed plant response rating: 0
[5]; [17]
  Plant response rating, Pigweed: 0
[6]; [13]
  Plant response rating, Velvetleaf: 10
[6]; [14]
  Plant response rating, Velvetleaf: 20
[6]; [15]
  Velvetleaf plant response rating: 0
[6]; [17]
  Plant response rating, Velvetleaf: 0
[7]; [13]
  Plant response rating, Wheat: 0
[7]; [14]
  Plant response rating, Wheat: 30
[7]; [15]
  Wheat plant response rating: 0
[7]; [17]
  Plant response rating, Wheat: 30
[8]; [13]
  Plant response rating, Corn: 0
[8]; [14]
  Plant response rating, Corn: 0
[8]; [15]
  Corn plant response rating: 0
[8]; [17]
  Plant response rating, Corn: 0
[9]; 250 g ai/ha
  Plant response rating, Rice: 0
[10]; 250 g ai/ha
  Plant response rating, Sedge, Umbrella: 0
[11]; 250 g ai/ha
  Plant response rating, Ducksalad: 0
[12]; 250 g ai/ha
  Plant response rating, Barnyardgrass: 0

## O=C1NCC(c2ccccc2)C1C(=O)Nc1ccccc1Cl (racemic) [Compound 83]
[1]; [14]
  Plant response rating, Barnyardgrass: 60
[1]; [15]
  Barnyardgrass plant response rating: 0
[1]; [16]
  Plant response rating, Barnyardgrass: 50
[2]; [13]
  Plant response rating, Crabgrass, Large: 20
[2]; [14]
  Plant response rating, Crabgrass, Large: 70
[2]; [15]
  Crabgrass, Large plant response rating: 70
[2]; [17]
  Plant response rating, Crabgrass, Large: 90
[3]; [13]
  Plant response rating, Foxtail, Giant: 0
[3]; [14]
  Plant response rating, Foxtail, Giant: 50
[3]; [15]
  Foxtail, Giant plant response rating: 0
[3]; [17]
  Plant response rating, Foxtail, Giant: 70
[4]; [13]
  Plant response rating, Morningglory: 0
[4]; [14]
  Plant response rating, Morningglory: 0
[4]; [15]
  Morningglory plant response rating: 0
[4]; [17]
  Plant response rating, Morningglory: 0
[5]; [13]
  Plant response rating, Pigweed: 0
[5]; [14]
  Plant response rating, Pigweed: 0
[5]; [15]
  Pigweed plant response rating: 0
[5]; [17]
  Plant response rating, Pigweed: 0
[6]; [13]
  Plant response rating, Velvetleaf: 0
[6]; [14]
  Plant response rating, Velvetleaf: 0
[6]; [15]
  Velvetleaf plant response rating: 0
[6]; [17]
  Plant response rating, Velvetleaf: 0
[7]; [13]
  Plant response rating, Wheat: 0
[7]; [14]
  Plant response rating, Wheat: 0
[7]; [15]
  Wheat plant response rating: 0
[7]; [17]
  Plant response rating, Wheat: 0
[8]; [13]
  Plant response rating, Corn: 0
[8]; [14]
  Plant response rating, Corn: 0
[8]; [15]
  Corn plant response rating: 0
[8]; [17]
  Plant response rating, Corn: 0
[9]; 250 g ai/ha
  Plant response rating, Rice: 0
[10]; 250 g ai/ha
  Plant response rating, Sedge, Umbrella: 0
[11]; 250 g ai/ha
  Plant response rating, Ducksalad: 50
[12]; 250 g ai/ha
  Plant response rating, Barnyardgrass: 30

## O=C1NCC(c2ccccc2)C1C(=O)Nc1ccc(Br)cc1F (racemic) [Compound 84]
[1]; [13]
  Plant response rating, Barnyardgrass: 0
[1]; [14]
  Plant response rating, Barnyardgrass: 0
[1]; [15]
  Barnyardgrass plant response rating: 0
[1]; [16]
  Plant response rating, Barnyardgrass: 0
[2]; [13]
  Plant response rating, Crabgrass, Large: 0
[2]; [14]
  Plant response rating, Crabgrass, Large: 20
[2]; [15]
  Crabgrass, Large plant response rating: 0
[2]; [17]
  Plant response rating, Crabgrass, Large: 50
[3]; [13]
  Plant response rating, Foxtail, Giant: 0
[3]; [14]
  Plant response rating, Foxtail, Giant: 0
[3]; [15]
  Foxtail, Giant plant response rating: 0
[3]; [17]
  Plant response rating, Foxtail, Giant: 0
[4]; [13]
  Plant response rating, Morningglory: 0
[4]; [14]
  Plant response rating, Morningglory: 0
[4]; [15]
  Morningglory plant response rating: 0
[4]; [17]
  Plant response rating, Morningglory: 0
[5]; [13]
  Plant response rating, Pigweed: 0
[5]; [14]
  Plant response rating, Pigweed: 0
[5]; [15]
  Pigweed plant response rating: 0
[5]; [17]
  Plant response rating, Pigweed: 0
[6]; [13]
  Plant response rating, Velvetleaf: 0
[6]; [14]
  Plant response rating, Velvetleaf: 0
[6]; [15]
  Velvetleaf plant response rating: 0
[6]; [17]
  Plant response rating, Velvetleaf: 0
[7]; [13]
  Plant response rating, Wheat: 0
[7]; [14]
  Plant response rating, Wheat: 0
[7]; [15]
  Wheat plant response rating: 0
[7]; [17]
  Plant response rating, Wheat: 0
[8]; [13]
  Plant response rating, Corn: 0
[8]; [14]
  Plant response rating, Corn: 0
[8]; [15]
  Corn plant response rating: 0
[8]; [17]
  Plant response rating, Corn: 0
[9]; 250 g ai/ha
  Plant response rating, Rice: 0
[10]; 250 g ai/ha
  Plant response rating, Sedge, Umbrella: 0
[11]; 250 g ai/ha
  Plant response rating, Ducksalad: 0
[12]; 250 g ai/ha
  Plant response rating, Barnyardgrass: 0

## O=C1NCC(c2ccc(F)c(F)c2)C1C(=O)Nc1cccnc1C(F)(F)F (racemic) [Compound 98]
[1]; [18]
  Plant response rating, Barnyardgrass: 50
[1]; [19]
  Plant response rating, Barnyardgrass: 50
[2]; [18]
  Plant response rating, Crabgrass, Large: 90
[2]; [19]
  Plant response rating, Crabgrass, Large: 90
[3]; [18]
  Plant response rating, Foxtail, Giant: 60
[3]; [19]
  Plant response rating, Foxtail, Giant: 90
[4]; [18]
  Plant response rating, Morningglory: 0
[4]; [19]
  Plant response rating, Morningglory: 0
[5]; [18]
  Plant response rating, Pigweed: 0
[5]; [19]
  Plant response rating, Pigweed: 0
[6]; [18]
  Plant response rating, Velvetleaf: 10
[6]; [19]
  Plant response rating, Velvetleaf: 0
[7]; [18]
  Plant response rating, Wheat: 20
[7]; [19]
  Plant response rating, Wheat: 0
[8]; [18]
  Plant response rating, Corn: 0
[8]; [19]
  Plant response rating, Corn: 20
[9]; 1000 g ai/ha
  Plant response rating, Rice: 0
[10]; 1000 g ai/ha
  Plant response rating, Sedge, Umbrella: 0
[11]; 1000 g ai/ha
  Plant response rating, Ducksalad: 90
[12]; 1000 g ai/ha
  Plant response rating, Barnyardgrass: 0
